Literature values in patent US11103501B2, “Dry powder formulation of azole derivative for inhalation” (priority 2011, dated 2021).

water solubility: < 1 µg/mL
solubility (pII 7): < 1 µg/mL
Compound: CCC(C)n1ncn(-c2ccc(N3CCN(c4ccc(OCC5COC(Cn6cncn6)(c6ccc(Cl)cc6Cl)O5)cc4)CC3)cc2)c1=O (centres unmarked) [itraconazole]
